Patent US7470683B2, “Tetracyclic compounds” (Les Laboratoires Servier, priority 2006, dated 2008)

Assays:
[1] = target: T1, human dopamine D2 receptor (Homo sapiens, UniProt P14416); experiment: Human D2 receptor binding study ([125I]-iodosulpride, CHO cell membranes); conditions: [125I]-iodosulpride 0.1 nM, read-out: pKi hD2 (converted)
T1 construct: expressed in transfected cells; membranes
Method: (§1) CHO (Chinese Hamster Ovary) cells are stably transfected with the gene encoding the human dopamine D2 or D3 receptor, in accordance with methods known from the literature. The native cells are deficient in the enzyme DHFR (DiHydroFolate Reductase). […] The transfections are carried out using Lipofectin (Gibco). The CHO cells co-transfected with the human D2 receptor and the phleomycin resistance gene are selected for their resistance to the presence of that antibiotic in the culture medium. The cells transfected with the human D3 receptor are selected, in a medium lacking hypoxanthine/thymidine, in the presence of methotrexate. The compositions of the culture media used are: for CHO-D2, DMEM (Dulbecco's Modified Eagle Medium) supplemented with 10% foetal calf serum and hypoxanthine/thymidine; and for CHO-D3, DMEM supplemented with 10% dialysed foetal calf serum. The cells are harvested at confluence and the membranes are then prepared.
After a few minutes in the presence of 0.2% trypsin, the cells are collected and centrifuged at 2,000 g for 5 minutes. The cell mass, which is re-suspended in 10 mM Tris-HCl buffer pH 7.5 containing 5 mM MgSO4, is then homogenised using a Polytron®. The homogenate is then centrifuged at 50,000 g for 15 minutes, and the sediment is re-suspended by gentle sonication in an incubation buffer having the composition: 50 mM Tris-HCl pH 7.5 containing 120 mM NaCl, 5 mM KCl, 2 mM CaCl2, 5 mM MgCl2. The membranes are then divided into aliquots and stored at −80° C. until the day of the experiment.
The concentration ranges of each compound include at least seven points determined in triplicate. Each experiment is repeated at least twice.
The incubation, which lasts for thirty minutes at 30° C., is terminated by rapid filtering through a Brandle apparatus, followed by three consecutive rinsings with Tris-HCl buffer pH 7.4 containing 120 mM NaCl. The filters are collected and then subjected to counting using a gamma counter.
The results are expressed in the form of pKi (pKi=−logKi).

[2] = test system: rat; experiment: Forced swimming test in the rat (antidepressive properties); format: in vivo; conditions: for Immobility (sec) mean ± s.e.m.: 30 min before 5-min test, carrier 174.3 ± 9.1
Source text: The forced swimming test (Porsolt R. et al, Eur. J. Pharmacol., 1978, 47, 379-91) is a behavioural test which comprises inducing a state of “despair” in the rat, by placing the naive animal in an enclosure full of water, from which it cannot escape, for a period of fifteen minutes. For the first five to ten minutes, the rat struggles vigorously but finally adopts an immobile posture during the last part of the test. Placed in the same enclosure on the following day, the animal remains immobile for most of the test (5 minutes' duration). Antidepressants reduce the duration of immobility of the rat during the test.
The experiment is carried out over two days, with a 24-hour interval, on rats having an average weight of 170 g, housed the day before in individual cages, with free access to food and drink.
On the first day, each rat is placed for fifteen minutes in a glass cylinder (20 cm diameter×40 cm high) filled to a height of 15 cm with water maintained at 25° C. On the second day, the animal is again placed in a cylinder for a period of five minutes; the total period of immobility (in seconds) of the rat is measured. The product or the solvent is administered to the animal thirty minutes before the beginning of the test. The effect of the products is statistically evaluated by analysis of variance over repeated measurements, followed by a Dunnett's test for comparison of the effects of different doses with the effect of the carrier (distilled water).

[3] = test system: rats having a unilateral lesion of the Substantia nigra; experiment: Rotations induced by dopaminergic agonists in rats having a unilateral 6-OH-DA lesion of the Substantia nigra; format: in vivo, rat; conditions: for Contralateral rotations mean ± s.e.m.: recorded for one hour, carrier 53.8 ± 12.8
[4] = test system: presynaptic dopaminergic autoreceptor; experiment: Presynaptic dopaminergic autoreceptor activation: unitary extracellular electrical activity in the ventral tegmentum area of the rat; format: in vivo; conditions: cumulative doses, relative to basal activity = 100%, mean ± s.e.m., n = 5
Method: Test Recording the Unitary Extracellular Electrical Activity in the Ventral Tegmentum Area of the Rat
Administration of a dopaminergic agonist decreases neuron discharge frequency in dose-dependent manner. This effect is reversed by haloperidol, a dopaminergic antagonist.
The rats are anaesthetised using chloral hydrate (400 mg/kg, i.p.) and placed in a stereotactic apparatus (Unimécanique, France) after catheterisation of the femoral vein. The level of anaesthesia is maintained by i.p. administration of chloral hydrate every hour; rectal temperature is held at 37±1° C. by means of a thermostatically controlled heated blanket. A tungsten microelectrode (10 MΩ, 1 μm) is advanced, using an electronic microdrive (Unimécanique, France), into the ventral tegmentum area (AP: −5.5/bregma; L: 0.7; H: 7.0-8.5/dura; Paxinos and Watson atlas, 1986). The potentials of dopaminergic cells are recognised by their morphology (triphasic potentials +/−/+, of a duration greater than 3 msec), their discharge rhythm, whether regular or in bursts of decreasing amplitude, and their discharge frequency, which is from 2 to 8 Hz. A single cell per animal is used for recording.
After a period ≧5 minutes (basal activity) and an initial injection of carrier (distilled water to which a few drops of dilute lactic acid have been added; pH adjusted to 5 using 1N NaOH), the products of the invention are administered intravenously in cumulatively increasing doses at intervals of 2-3 minutes.
Data acquisition is performed by the Spike2 software package (Cambridge Electronic Design, England). The discharge frequency is measured over one minute at the maximum change between each injection and is expressed as the percentage change with respect to the basal activity (averaged over the 5 minutes preceding the first treatment), which is defined as 100%. The effect of the products is statistically evaluated by analysis of variance over repeated measurements, followed by a Dunnett's test for comparison of the effects of different doses with the effect of the carrier (distilled water).

[5] = test system: rat; experiment: Ultrasonic vocalisation test in the rat (anxiolytic properties); format: in vivo; conditions: for Duration of ultrasonic vocalisations (s) mean ± s.e.m.: ten-minute recording, carrier 254.3 ± 42.1
Source text: When a rat is placed in an environment previously associated with an unpleasant experience (electric shocks to the paws), its anxiety is shown by the emission of inaudible cries (or ultrasonic vocalisations).
Standard boxes (Coulbourn Instruments), placed in sound-attenuating ventilated enclosures, are provided with a floor composed of electrifiable metal bars (shock generator and scrambler, Med Associates Inc) and with a microphone located in the centre of the ceiling. The ultrasounds are converted into an audible range (bat detector, Buitenbedrijf). The signals modified in that manner are filtered and then processed (RTS software, Engineering Design). The spectrograms obtained are recorded on DAT tapes.
Male rats of the Wistar strain, weighing 180-200 g on their arrival, are housed in cages of four with free access to food and water, from five days before the start of the study until its end. The procedure employed is divided up into three successive stages separated by 24 hours and called training, selection and test. During the training session, the animals are placed singly in the boxes, where they receive six electric shocks (0.8 mA, 8 s) randomly spaced over a period of seven minutes. Selection comprises placing each animal in a box for two minutes, where they receive a single shock, and putting them back in the box thirty minutes later for a ten-minute session of recording the ultrasonic vocalisations; those animals whose vocalisations last less than 90 seconds are excluded from the remainder of the experiment. The test phase proceeds in a similar manner to the selection stage, with the products or the carrier additionally being administered at the end of the two-minute session. The effect of the products is statistically evaluated by analysis of variance over repeated measurements, followed by a Dunnett's test for comparison of the effects of different doses with the effect of the carrier (distilled water).

[6] = target: T2, human dopamine D3 receptor (Homo sapiens, UniProt P35462); experiment: Human D3 receptor binding study ([125I]-iodosulpride, CHO cell membranes); conditions: [125I]-iodosulpride 0.2 nM, read-out: pKi hD3 (converted)
T2 construct: expressed in transfected cells; membranes
T2 sequence (P35462 whole entry): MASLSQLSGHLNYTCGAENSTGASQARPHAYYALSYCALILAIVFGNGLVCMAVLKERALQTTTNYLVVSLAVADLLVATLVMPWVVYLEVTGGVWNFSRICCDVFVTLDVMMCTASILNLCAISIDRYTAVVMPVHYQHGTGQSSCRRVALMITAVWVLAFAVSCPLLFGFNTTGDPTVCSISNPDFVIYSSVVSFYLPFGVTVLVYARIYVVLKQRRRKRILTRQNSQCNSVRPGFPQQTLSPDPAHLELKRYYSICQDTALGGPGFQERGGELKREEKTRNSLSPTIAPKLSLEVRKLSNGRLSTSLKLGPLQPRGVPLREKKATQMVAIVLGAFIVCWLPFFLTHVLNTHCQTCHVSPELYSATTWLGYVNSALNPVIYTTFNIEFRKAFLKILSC
Method: as §1
After a few minutes in the presence of 0.2% trypsin, the cells are collected and centrifuged at 2,000 g for 5 minutes. The cell mass, which is re-suspended in 10 mM Tris-HCl buffer pH 7.5 containing 5 mM MgSO4, is then homogenised using a Polytron®. […]
The concentration ranges of each compound include at least seven points determined in triplicate. […]

T1 sequence (P14416 whole entry): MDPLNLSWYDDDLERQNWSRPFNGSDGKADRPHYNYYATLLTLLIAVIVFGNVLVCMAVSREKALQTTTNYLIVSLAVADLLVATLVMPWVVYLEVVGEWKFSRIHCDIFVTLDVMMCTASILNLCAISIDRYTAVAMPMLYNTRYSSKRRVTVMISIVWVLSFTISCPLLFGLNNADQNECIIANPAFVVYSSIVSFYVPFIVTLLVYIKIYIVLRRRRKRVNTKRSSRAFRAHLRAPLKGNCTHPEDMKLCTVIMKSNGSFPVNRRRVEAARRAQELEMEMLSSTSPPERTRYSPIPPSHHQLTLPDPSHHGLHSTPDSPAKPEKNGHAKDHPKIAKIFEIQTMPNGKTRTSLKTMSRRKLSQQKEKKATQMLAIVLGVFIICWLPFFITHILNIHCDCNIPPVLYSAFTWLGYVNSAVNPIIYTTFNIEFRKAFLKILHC

CCCN1CCO[C@@H]2c3cc4c(=O)[nH]ccc4cc3CC[C@H]21 [Example 8, (4aR,12bR)-4-Propyl-2,3,4,4a,5,6,10,12b-octahydro-11H-isoquino-[6,7-h][1,4]benzoxazin-11-one]
Ki [1]: 1260 nM

CCCN1CCO[C@@H]2c3cc4c(cc3CC[C@H]21)CNC4=O (single isomer, unassigned) [Example 2]
Immobility (sec) mean ± s.e.m. ([2]; 0.02 mg/kg s.c.): 159.4 ± 7.9 s
Immobility (sec) mean ± s.e.m. ([2]; 0.04 mg/kg s.c.): 122.7 ± 21.2 s
Immobility (sec) mean ± s.e.m. ([2]; 0.08 mg/kg s.c.): 22.03 ± 5.8 s
Effect on period of immobility (in words) ([2]; s.c., rat): reduces the period of immobility of the animal in dose-dependent manner
Contralateral rotations mean ± s.e.m. ([3]; 0.00063 mg/kg s.c.): 157.4 ± 32.1
Contralateral rotations mean ± s.e.m. ([3]; 0.0025 mg/kg s.c.): 337.3 ± 48.3
Contralateral rotations mean ± s.e.m. ([3]; 0.01 mg/kg s.c.): 553.8 ± 138.3
Dose from which the product is active in the rotation test ([3]; s.c.): ≥ 2.5 µg/kg
Neuron discharge frequency ([4]; 0.125 μg/kg i.v.): 91.8 ± 5.2%
Neuron discharge frequency ([4]; 0.25 μg/kg i.v.): 79.9 ± 5.9 %
Neuron discharge frequency ([4]; 0.5 μg/kg i.v.): 66.3 ± 5.9 %
Neuron discharge frequency ([4]; 1.0 μg/kg i.v.): 42.0 ± 7.3 %
Neuron discharge frequency ([4]; 2.0 μg/kg i.v.): 10.8 ± 8.7 %
Neuron discharge frequency ([4]; 4.0 μg/kg i.v.): 2.3 ± 2.3 %
Neuron discharge frequency ([4]; 8.0 μg/kg i.v.): 0.0 ± 0.0 %
Duration of ultrasonic vocalisations (s) mean ± s.e.m. ([5]; 0.0025 mg/kg s.c.): 274.0 ± 59.0 s
Duration of ultrasonic vocalisations (s) mean ± s.e.m. ([5]; 0.04 mg/kg s.c.): 28.0 ± 5.6 s
Duration of ultrasonic vocalisations (s) mean ± s.e.m. ([5]; 0.63 mg/kg s.c.): 22.0 ± 3.2 s
Effect on duration of vocalisations (in words) ([5]; doses of 0.04 and 0.63 mg/kg s.c.): substantial reduction in the duration of vocalisations

CCCN1CCO[C@@H]2c3cc4c(cc3CC[C@H]21)COC4=O [Example 4, (4aR,11bR)-4-Propyl-2,3,4,4a,5,6,8,11b-octahydro-10H-furo[3′,4′:6,7]-naphtho[1,2-b][1,4]oxazin-10-one]
Ki [1]: 2000 nM

CCCN1CCO[C@@H]2c3cc4c(cc3CC[C@H]21)CCNC4=O [Example 6, (4aR,12bR)-4-Propyl-2,3,4,4a,5,6,8,9,10,12b-decahydro-11H-isoquino-[6,7-h][1,4]benzoxazin-11-one]
Ki [1]: 794 nM

CCCN1CCO[C@@H]2c3cc4c(cc3CC[C@H]21)CCOC4=O [Example 5, (4aR,12bR)-4-Propyl-3,4,4a,5,6,8,9,12b-octahydro-2H,11H-pyrano-[4′,3′:6,7]naphtho[1,2-b][1,4]oxazin-11-one]
Ki [1]: 1580 nM
Ki [6]: 126 nM

CN1CCc2cccc3c2[C@H]1Cc1ccc(O)c(O)c1-3 [Apomorphine, apomorphine, reference compound]
Contralateral rotations mean ± s.e.m. ([3]; 0.02 mg/kg s.c.): 497.2 ± 91.4
